Laboratory results published in patent US20240309012A1, “ISOQUINOLINE COMPOUND, MANUFACTURING METHOD THEREFOR, AND APPLICATION THEREOF” (priority 2020, published 2024).
Read-outs that look alike come from different tables or passages of the source.

Experiments:
[1] = Cytotoxicity test on Vero E6 cells by CCK8 kit; type: cell-based; details: African green monkey
Description: (§1) In this example, the median toxic concentration (CC50) of each example on Vero E6 cells was analysed and determined by CCK8 kit.

[2] = test system: 2019 novel coronavirus (SARS-CoV-2); assay: Inhibition of 2019 novel coronavirus (SARS-CoV-2) replication in Vero E6 cells, virus copy number by qRT-PCR; type: cell-based
SARS-CoV-2 = details: existing literature; cited from earlier work
Vero E6 cells = assay: Cytotoxicity test on Vero E6 cells by CCK8 kit; type: cell-based
Description: as §1

[3] = Severe acute respiratory syndrome coronavirus 2, Vero C1008, Vero E6 cells, MOI 0.01, 24 h p.i., qRT-PCR of supernatant
[4] = Severe acute respiratory syndrome coronavirus 2, Vero C1008, 24 h

Compound	CC50 [1] [µM]	EC50 [2, 3] [µM]	also measured
COc1cc2c3cc1Oc1c(OC)c(OC)cc4c1[C@@H](Cc1ccc(C(C)O)c(c1)Oc1ccc(cc1)C[C@@H]3N(C)CC2)N(C)CC4 (stereo partly drawn) [Compound 46]	29.7	1.02	
COc1cc2c3cc1Oc1c(OC)c(OC)cc4c1[C@@H](Cc1ccc(C(C)=O)c(c1)Oc1ccc(cc1)C[C@@H]3N(C)CC2)N(C)CC4 [Compound 25]	29.4	< 2	
COc1cc2c3cc1Oc1c(OC)c(OC)cc4c1[C@@H](Cc1ccc(C(N)=O)c(c1)Oc1ccc(cc1)C[C@@H]3N(C)CC2)N(C)CC4 [Compound 9]	63.2	0.55	
COc1cc2c3cc1Oc1c(OC)c(OC)cc4c1[C@@H](Cc1cc(cc([N+](=O)[O-])c1)Oc1ccc(cc1)C[C@@H]3N(C)CC2)N(C)CC4 [Compound 33]	24.3	0.63	
CCCCNC(=O)Oc1ccc2cc1Oc1ccc(cc1)C[C@H]1c3cc(c(OC)cc3CCN1C)Oc1c(OC)c(OC)cc3c1[C@@H](C2)N(C)CC3 [Compound 4]	31.5		EC50 [2, 4]: 0.94 µM
COc1cc2c3cc1Oc1c(OC)c(OC)cc4c1[C@@H](Cc1ccc(CO)c(c1)Oc1ccc(cc1)C[C@@H]3N(C)CC2)N(C)CC4 [Compound 3]	70.5	1.12	
COc1cc2c3cc1Oc1c(OC)c(OC)cc4c1[C@@H](Cc1ccc(C(=O)OCCOCCO)c(c1)Oc1ccc(cc1)C[C@@H]3N(C)CC2)N(C)CC4 [Compound 65]	58.4	< 2	
COc1cc2c3cc1Oc1c(OC)c(OC)cc4c1[C@@H](Cc1ccc(OC(=O)CCCC[C@H]5CCSS5)c(c1)Oc1ccc(cc1)C[C@@H]3N(C)CC2)N(C)CC4 [Compound 5]	172	1.5	
COc1cc2c3cc1Oc1c(OC)c(OC)cc4c1[C@@H](Cc1ccc(C(=O)Nc5ccccc5)c(c1)Oc1ccc(cc1)C[C@@H]3N(C)CC2)N(C)CC4 [Compound 51]	10.2	< 2	
COc1cc2c3cc1Oc1c(OC)c(OC)cc4c1[C@@H](Cc1cccc(c1)Oc1ccc(cc1)C[C@@H]3N(C)CC2)N(C)CC4 [Compound 39]	17.1	0.93	
COc1cc2c3cc1Oc1c(OC)c(OC)cc4c1[C@@H](Cc1ccc(C(=O)NCCOCCO)c(c1)Oc1ccc(cc1)C[C@@H]3N(C)CC2)N(C)CC4 [Compound 62]	123	< 2	
COc1cc2c3cc1Oc1c(OC)c(OC)cc4c1[C@@H](Cc1ccc(C(=O)NC5CCCC5)c(c1)Oc1ccc(cc1)C[C@@H]3N(C)CC2)N(C)CC4 [Compound 28]	22.5	2.4	
C=C(C)c1ccc2cc1Oc1ccc(cc1)C[C@H]1c3cc(c(OC)cc3CCN1C)Oc1c(OC)c(OC)cc3c1[C@@H](C2)N(C)CC3 [Compound 40]	11.7	0.95	
COc1cc2c3cc1Oc1c(OC)c(OC)cc4c1[C@@H](Cc1ccc(C(=O)Nc5cccnc5)c(c1)Oc1ccc(cc1)C[C@@H]3N(C)CC2)N(C)CC4 [Compound 58]	26.4	< 2	
COc1cc2c3cc1Oc1c(OC)c(OC)cc4c1[C@@H](Cc1ccc(C(=O)N5CCCCC5)c(c1)Oc1ccc(cc1)C[C@@H]3N(C)CC2)N(C)CC4 [Compound 47]	24.6	< 2	
COc1cc2c3cc1Oc1c(OC)c(OC)cc4c1[C@@H](Cc1ccc(C(=O)C5CC5)c(c1)Oc1ccc(cc1)C[C@@H]3N(C)CC2)N(C)CC4 [Compound 61]	13.7	< 2	

Compound	CC50 [1] [µM]	EC50 [2, 3] [µM]	also measured
Berbamine hydrochloride [reference compound]			Anti-novel coronavirus effect (in words) (SARS-CoV-2): not strong; CC50 (Vero E6 cells): 29.9 µM; EC50 [2]: 14.5 µM
COc1cc2c3cc1Oc1c(OC)c(OC)cc4c1[C@@H](Cc1ccc(C(=O)NC5CCC5)c(c1)Oc1ccc(cc1)C[C@@H]3N(C)CC2)N(C)CC4 [Compound 57]	33.9	< 2	
COc1ccc(NC(=O)c2ccc3cc2Oc2ccc(cc2)C[C@H]2c4cc(c(OC)cc4CCN2C)Oc2c(OC)c(OC)cc4c2[C@@H](C3)N(C)CC4)cc1 [Compound 59]	10.6	< 2	
COc1cc2c3cc1Oc1c(OC)c(OC)cc4c1[C@@H](Cc1ccc(C#N)c(c1)Oc1ccc(cc1)C[C@@H]3N(C)CC2)N(C)CC4 [Compound 1]	25.6	0.7	
COc1cc2c3cc1Oc1c(OC)c(OC)cc4c1[C@@H](Cc1ccc(C(=O)Nc5ccc(C(F)(F)F)cc5)c(c1)Oc1ccc(cc1)C[C@@H]3N(C)CC2)N(C)CC4 [Compound 54]	10.5	< 2	
COc1cc2c3cc1Oc1c(OC)c(OC)cc4c1[C@@H](Cc1ccc(C)c(c1)Oc1ccc(cc1)C[C@@H]3N(C)CC2)N(C)CC4 [Compound 41]	10.2	2.45	
CCCCNC(=O)Oc1c(OC)cc2c3c1Oc1cc4c(cc1OC)CCN(C)[C@H]4Cc1ccc(cc1)Oc1cc(ccc1OC)C[C@H]3N(C)CC2 [Compound 53]	22.2		EC50 [2, 4]: < 2 µM
COc1cc2c3cc1Oc1c(OC)c(OC)cc4c1[C@@H](Cc1ccc(C(=O)NC5CC5)c(c1)Oc1ccc(cc1)C[C@@H]3N(C)CC2)N(C)CC4 [Compound 49]	62.3	< 2	
COC(=O)c1ccc2cc1Oc1ccc(cc1)C[C@H]1c3cc(c(OC)cc3CCN1C)Oc1c(OC)c(OC)cc3c1[C@@H](C2)N(C)CC3 [Compound 8]	31.4	0.36	
COc1cc2c3cc1Oc1c(OC)c(OC)cc4c1[C@@H](Cc1ccc(C5CC5)c(c1)Oc1ccc(cc1)C[C@@H]3N(C)CC2)N(C)CC4 [Compound 44]	10.8	2.25	
C=CC(=O)Nc1ccc2cc1Oc1ccc(cc1)C[C@H]1c3cc(c(OC)cc3CCN1C)Oc1c(OC)c(OC)cc3c1[C@@H](C2)N(C)CC3 [Compound 42]	31.1	< 2	
CCCCCNC(=O)c1ccc2cc1Oc1ccc(cc1)C[C@H]1c3cc(c(OC)cc3CCN1C)Oc1c(OC)c(OC)cc3c1[C@@H](C2)N(C)CC3 [Compound 43]	10.4	2.09	
COc1cc2c3cc1Oc1c(OC)c(OC)cc4c1[C@@H](Cc1ccc(C=O)c(c1)Oc1ccc(cc1)C[C@@H]3N(C)CC2)N(C)CC4 [Compound 2]	102	1.19	
COc1cc2c3cc1Oc1c(OC)c(OC)cc4c1[C@@H](Cc1ccc(C(=O)NC(C)C)c(c1)Oc1ccc(cc1)C[C@@H]3N(C)CC2)N(C)CC4 [Compound 55]	32	< 2	
COc1cc2c3cc1Oc1c(OC)c(OC)cc4c1[C@@H](Cc1cc(c5oc(=O)[nH]c5c1)Oc1ccc(cc1)C[C@@H]3N(C)CC2)N(C)CC4 [Compound 18]	14.7	0.9	
